Laboratory results: US5631226A, “Treatment to reduce edema” (The Regents of the University of California, priority 1995, dated 1997)
No end group written: not given here.

Experiments:
[1] = tested on: blood pressure; settings: prior art report; cited from earlier work
[2] = tested on: ACTH secretion; settings: prior art report; cited from earlier work
[3] = tested on: vascular permeability produced by cold injury in brain; experiment: Cold (freeze) injury to brain, vascular leakage by Monastral blue staining; type: in vivo, rat
Description: An in vivo model of injury to study brain edema has been developed as a reproducible edema model, which has the features of immediate cortical damage followed by the subsequent development of brain edema. This model is described by Chan et al., Brain Research, 277, pp. 329-337 (1983). The model uses rats which are anesthetized. A 2.5 cm incision is made over the sagittal suture and the bone of the right hemisphere exposed. A 60 mm^2 plate attached to a brass cup filled with dry ice-acetone mixture, with a temperature of -50° C., is applied to the rat skull for one minute. The animals are sacrificed at various intervals after the onset of cold-injury. A dye is administered intravenously before the freezing. Cortical slices are then obtained of the brain.
Sixteen male rats were randomly divided into eight pairs and one rat in each pair received either saline or CRF (subcutaneously twice at 30 μg/kg, 30 min and 10 min before cold injury). The animals were anesthetized with sodium pentobarbital, 60 mg/kg intraperitoneally, and injected with Monastral blue, 60 mg/kg intravenously. A cold probe was applied onto the skull for four minutes and the brains taken out one hour after cold injury. The staining of brain tissues with Monastral blue, a colloidal pigment that gets trapped between the albuminal surface of the endothelial cell and the basement membrane, was proportional to the degree of vascular leakage. The results from the first pair are shown as FIG. 1.
The size of the lesion, measured as area in mm^2, and the degree of staining intensity, were quantified using an image-analysis software program called JAVA (Jandel Corporation, San Rafael, Calif.). The stain intensity, given in arbitrary units, was internally calibrated using Monastral blue solutions (1-30 mg/ml) placed on white filter paper. Values are mean ±S.E.M.

[4] = tested on: brain edema after freeze injury to cerebral cortex; experiment: Freeze injury of cerebral cortex, water and sodium content as index of brain edema; type: in vivo, rat; settings: CRF 30 μg/kg s.c. 2x, tissues 3 hr after injury, ±S.E.M., N=5
Experimental: In a second set of experiments, the brain surface, namely the cerebral cortex, was injured by freezing and the water and sodium content were measured in the cerebral cortex and in the basal ganglia, a part of the brain away from the freeze zone. The water and sodium content of the brain tissue served as an index of brain edema. After freeze injury, the water and sodium content of the cerebral cortex were evaluated relative to non-frozen tissues. CRF administered in two separate doses of 30 μg/kg subcutaneously, one dose 15 minutes before the injury and the second dose 90 minutes after the first dose, inhibited the two indices of brain edema.
Male SpragueDawley rats, 300-325 g, anesthetized with
ketamineacepromazine, were injected saline or CRF (30 μg/kg s.c. 2x)
and injury to cerebral cortex was produced by applying a cold probe to th
skull for 1 min. Brain tissues were obtained 3 hr later and analyzed for
water and sodium content.

[5] = tested on: vascular leakage after musculature injury (celiotomy); experiment: Vascular leakage after celiotomy (4 cm midline incision through abdominal muscle wall); type: in vivo, rat; settings: for Lesions Size: tissues 0.5 hour after surgery
Experimental: Experiments were conducted on male Sprague-Dawley rats 243±15 gm (S. D., Simonsen Labs., Gilroy, Calif.) anesthetized with sodium pentobarbital, 60 mg/kg i.p. Monastral blue, 60 mg/kg i.v., was injected 0.2 ml/100 g, 3 minutes before a 4 cm midline incision through the abdominal muscle wall (celiotomy). Saline or CRF was administered to randomized pairs with N=8 rats per group. The size of the lesion, measured as area in mm^2, and its light intensity, were quantified using the JAVA image-analysis software program. The light intensity, given in arbitrary units, was internally calibrated using Monastral blue solutions (1-30 mg/ml) placed on white filter paper. Values are mean±S.E.M. FIG. 2 illustrates the respective amount of vascular permeability for one pair of rats (control and treated). Tables III and IV set out data from these experiments.
CRF: inhected at various doses subcutaneously 30 minutes before a 4 cm
middle incision, tissues taken 0.5 hour after surgery.
CRF: 30 μg/kg s.c. injected 2 hour before a 4 cm midline incision,
tissues taken 0.5 hour after surgery

[6] = tested on: vascular leakage produced by PAF-acether; experiment: Vascular leakage produced by PAF-acether injected subcutaneously into the abdomen; type: in vivo, rat; settings: CRF 30 μg/kg s.c. 30 minutes before PAF-acether
Experimental: CRF: 30 μg/kg s.c. injected 30 minutes before subcutaneous injection o
PAFacether (1 μg/0.1 ml/rat) into the abdomen; muscle removed 0.5 hour

[7] = tested on: Pseudomonas; experiment: Neutropenic rat model of sepsis (Pseudomonas infection), survival; type: in vivo; settings: CRF 100 μg/kg i.v. twice a day for four days after onset of fever; day 11; 9/15; controls 100% mortality at 8 days
Description: The neutropenic rat model of sepsis, designed to mimic the systemic inflammatory response syndrome in humans, is described by Collins et al. from The Journal of Infectious Diseases, 159:6 (June 1989) and The Journal of Clinical Investigation, 88:885 (September 1991). […] The animals die from overwhelming infection within 7 to 9 days of infection and examination of the tissues with histological and pathological techniques reveal the characteristic organic manifestations of the systemic inflammatory response syndrome, namely, organ edema and tissue necrosis.
In a typical experiment, 10 rats serving as controls received saline and 15 rats received CRF at a dose of 100 μg/kg intravenously, given twice a day for four days after the onset of fever. At the end of 8 days, all of the animals in the control group were dead (100% mortality). By contrast, 60% (9/15) of the CRF group were still alive at day 11 when the experiment was concluded. The difference between the saline and CRF treated groups were statistically significant (P<0.002).

[8] = tested on: edema-producing properties of inflammatory mediators in rat pawskin; settings: mediators injected into the rat pawskin; previously shown; cited from earlier work
[9] = CRF 15 μg/kg s.c. 30 minutes before incision
[10] = CRF 30 μg/kg s.c. 30 minutes before incision
[11] = CRF 60 μg/kg s.c. 30 minutes before incision

| Compound | effect on blood pressure [1] | effect on ACTH secretion [2] | lesion size of CRF-treated group relative to saline-treated group ([3]; CRF 30 μg/kg s.c. twice before cold injury) | Intensity (Monastral blue stain intensity) ([3]; CRF 30 μg/kg s.c. twice, 30 min and 10 min before cold injury, brains taken 1 hour after injury, mean ± S.E.M.) | blinded observer correctly assigns brains to saline or CRF group (more vs less damaged) ([3]; eight pairs of rats) | SODIUM mEq/kg dry ([4]; basal ganglia (non-injured)) | WATER CONTENT % ([4]; basal ganglia (non-injured)) | SODIUM mEq/kg dry ([4]; cerebral cortex (injured)) | WATER CONTENT % ([4]; cerebral cortex (injured)) | lesion size relative to saline-treated group [5, 9] | Lesions Size [5, 9] | lesion size relative to saline-treated group [5, 10] | Lesions Size [5, 10] | lesion size relative to saline-treated group ([5]; CRF 30 μg/kg s.c. 2 hour before incision) | lesion size relative to saline-treated group [5, 11] | Lesions Size [5, 11] | muscle lesion size relative to saline-treated control group [6] | animals still alive (survival) [7] | effect on edema-producing properties of inflammatory mediators [8] |
| --- | --- | --- | --- | --- | --- | --- | --- | --- | --- | --- | --- | --- | --- | --- | --- | --- | --- | --- | --- |
| CC[C@H](C)[C@H](NC(=O)[C@@H](NC(=O)[C@H](CC(=O)O)NC(=O)[C@H](CC(C)C)NC(=O)[C@H](CC(C)C)NC(=O)[C@H](CC(C)C)NC(=O)[C@H](CCCNC(=N)N)NC(=O)[C@H](CC(N)=O)NC(=O)[C@H](CC(N)=O)NC(=O)[C@H](C)NC(=O)[C@H](C)NC(=O)[C@H](CCC(N)=O)NC(=O)[C@H](CCC(N)=O)NC(=O)[C@H](CCCCN)NC(=O)[C@H](CCC(=O)O)NC(=O)[C@H](CCCCN)NC(=O)[C@H](CCC(=O)O)NC(=O)[C@H](CCC(N)=O)NC(=O)[C@H](CCCCN)NC(=O)[C@H](CCC(=O)O)NC(=O)[C@@H](NC(=O)[C@H](CCC(=O)O)NC(=O)[C@@H](NC(=O)[C@H](CCSC)NC(=O)[C@H](CCCCN)NC(=O)[C@H](CCCNC(=N)N)NC(=O)[C@H](CC(C)C)NC(=O)[C@H](CC(C)C)NC(=O)[C@H](CCC(=O)O)NC(=O)[C@H](CC(C)C)NC(=O)[C@H](CO)NC(=O)[C@H](CC(C)C)NC(=O)[C@H](CC(=O)O)NC(=O)[C@@H](NC(=O)[C@H](CO)NC(=O)[C@@H](NC(=O)[C@@H]1CCCN1C(=O)[C@@H]1CCCN1C(=O)CNC(=O)[C@@H]1CCC(=O)N1)[C@@H](C)CC)[C@@H](C)CC)[C@@H](C)CC)[C@@H](C)CC)[C@@H](C)O)C(N)=O [Sauvagine] | lowering blood pressure | stimulating the secretion of ACTH and β-endorphin |  |  |  |  |  |  |  |  |  |  |  |  |  |  |  |  |  |
| CRF: 41 amino acid neuropeptide present in brain and peripheral nerve endings; stimulates ACTH release from pituitary cells (SEEPPISLDLTFHLLREVLEMARAEQLAQQAHSNRKLMEII; not fully specified; ends and bridges not checked; UniProt P06850 154-194, looked up) |  |  | 44% | 2.0 ± 0.05 arbitrary units | 8 out of 8 | 215 ± 9 mEq/kg dry | 76 ± 1% | 271 ± 8 mEq/kg dry | 77 ± 4% | 63% | 1031 ± 44 | 42% | 676 ± 47 | 59% | 29% | 468 ± 19 | 44% | 60% | antagonize the edema-producing properties |
